Here are results for three compounds from patent US8314150B2, “Kinase protein binding inhibitors” (priority 2008, dated 2012).

SMILES strings stand for the structures. Some results are limits rather than exact numbers.

The test system of test [1] is Y397-FAK phosphorylation. To be noted: cited from earlier work.
For test [2], the system named is cell growth and survival. To be noted: cited from earlier work.
For test [3], the target named is T1, FAK (Homo sapiens, UniProt Q05397).
T1 construct: made in house; host or cells: Baculovirus system
T1 sequence (Q05397 whole entry): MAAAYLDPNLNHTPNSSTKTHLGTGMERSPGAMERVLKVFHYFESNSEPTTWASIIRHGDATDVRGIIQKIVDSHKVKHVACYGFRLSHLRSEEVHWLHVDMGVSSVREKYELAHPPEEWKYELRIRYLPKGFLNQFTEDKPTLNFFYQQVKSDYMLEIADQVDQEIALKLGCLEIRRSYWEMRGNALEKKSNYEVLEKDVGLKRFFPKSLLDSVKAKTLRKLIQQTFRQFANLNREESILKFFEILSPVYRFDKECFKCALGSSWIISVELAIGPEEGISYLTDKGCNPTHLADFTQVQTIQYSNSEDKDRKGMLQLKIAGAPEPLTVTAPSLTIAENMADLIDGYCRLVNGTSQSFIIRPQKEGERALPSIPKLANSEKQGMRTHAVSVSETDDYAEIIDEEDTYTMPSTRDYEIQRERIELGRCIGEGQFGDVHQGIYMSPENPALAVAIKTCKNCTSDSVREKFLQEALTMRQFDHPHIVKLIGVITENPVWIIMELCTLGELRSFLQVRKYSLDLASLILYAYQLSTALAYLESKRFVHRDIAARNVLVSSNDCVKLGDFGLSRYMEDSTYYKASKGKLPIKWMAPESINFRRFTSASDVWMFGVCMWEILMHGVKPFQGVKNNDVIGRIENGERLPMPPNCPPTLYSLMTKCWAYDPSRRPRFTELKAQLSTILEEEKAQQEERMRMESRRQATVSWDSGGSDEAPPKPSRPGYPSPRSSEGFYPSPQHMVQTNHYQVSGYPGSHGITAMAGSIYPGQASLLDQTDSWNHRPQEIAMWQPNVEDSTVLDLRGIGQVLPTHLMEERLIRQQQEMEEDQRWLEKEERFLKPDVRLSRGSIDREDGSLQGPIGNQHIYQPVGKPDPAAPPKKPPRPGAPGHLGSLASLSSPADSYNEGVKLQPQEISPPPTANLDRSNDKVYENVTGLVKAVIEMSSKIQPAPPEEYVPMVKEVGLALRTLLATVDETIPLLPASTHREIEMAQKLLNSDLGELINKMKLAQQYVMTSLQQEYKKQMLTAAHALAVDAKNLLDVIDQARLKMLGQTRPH
The test is described as follows: In vitro kinase assay with purified recombinant FAK. To be noted: positive control. The test is classed as biochemical. Here is the method:
(§1) Cell Viability Assay—The Cells were treated with peptides for 24 hours at different peptide concentrations. The 3-(4,5-dimethylthiazol-2-yl)-5-(3-carboxymethoxyphenyl)-2-(4-sulfophenyl)-2H-tetrazolium compound from Promega Viability kit (Madison, Ill.) was added, and the cells were incubated at 37° C. for 1-2 hours. The optical density on 96-plate was analyzed with a microplate reader at 490 nm to determine cell viability. In addition, cells were stained with trypan blue after 24 hours of treatment with Y15 and the percent of cells that stained positive were determined with a hemacytometer. […] Then 2% SDS was added to the dried plated and OD at 590 nm was measured for detecting cell adhesion. […] Protein concentrations were determined using a Bio-Rad Kit. The boiled samples were loaded on Ready SDS-10% PAGE gels (Bio Rad, Inc) and used for Western blot analysis with the protein-specific antibody. […] Detachment Assay—Cells were plated with and without inhibitors for 24 hours, and detached and attached cells were counted in a hemocytometer. We calculated the percent of detachment by dividing the number of detached cells by the total number of cells. The percent of detached cells was calculated in three independent experiments. […] For each experiment 300 cells per treatment were counted. […]

For test [4], the system named is BT474 cells. The test is described as follows: Detachment assay, BT474. It is filed as cell-based. To be noted: 24 hours. The protocol: (§2) Cell Viability Assay—The Cells were treated with peptides for 24 hours at different peptide concentrations. The 3-(4,5-dimethylthiazol-2-yl)-5-(3-carboxymethoxyphenyl)-2-(4-sulfophenyl)-2H-tetrazolium compound from Promega Viability kit (Madison, Ill.) was added, and the cells were incubated at 37° C. for 1-2 hours. The optical density on 96-plate was analyzed with a microplate reader at 490 nm to determine cell viability. In addition, cells were stained with trypan blue after 24 hours of treatment with Y15 and the percent of cells that stained positive were determined with a hemacytometer. Cell adhesion assay—The poly-L-Lysine or Collagen (5 μg/ml) coated 96-well plates were blocked with the blocking buffer (medium with 0.5% BSA) for 1 hour at 37 C. The cells were pre-treated with drugs for 3 hours and plated for adhesion at 4×10^5 cells. Cells were incubated at 37 C for 1 hour, fixed in 3.7% formaldehyde, washed in 0.1% BSA in PBS and stained with crystal violet (5 mg/ml in 2% ethanol) for 10 minutes. Then 2% SDS was added to the dried plated and OD at 590 nm was measured for detecting cell adhesion. Western Blotting—Cells or homogenized tumor samples were washed twice with cold 1×PBS and lysed on ice for 30 minutes in a buffer containing: 50 mM Tris-HCl (pH 7.5), 150 mM NaCl, 1% Triton-X, 0.5% NaDOC, 0.1% SDS, 5 mM EDTA, 50 mM NaF, 1 mM NaVO3, 10% glycerol and protease inhibitors: 10 μg/ml leupeptin, 10 μg/ml PMSF and 1 μg/ml aprotinin. The lysates were cleared by centrifugation at 10,000 rpm for 30 minutes at 4° C. Protein concentrations were determined using a Bio-Rad Kit. The boiled samples were loaded on Ready SDS-10% PAGE gels (Bio Rad, Inc) and used for Western blot analysis with the protein-specific antibody. Immunoblots were developed with chemiluminescence Renaissance reagent (NEN Life Science Products, Inc). Immunoprecipitation. Immunoprecipitation was performed according to the standard protocol. In brief, the pre-cleared lysates with equal amount of protein were incubated with 1 μg of primary antibody and 30 μl A/G agarose beads overnight at 4° C. The precipitates were washed with lysis buffer three times and re-suspended in 2× Laemmli buffer. The boiled samples were used for Western blotting, as described above. Detachment Assay—Cells were plated with and without inhibitors for 24 hours, and detached and attached cells were counted in a hemocytometer. We calculated the percent of detachment by dividing the number of detached cells by the total number of cells. The percent of detached cells was calculated in three independent experiments. Apoptosis Assay. […] The percent of apoptotic cells was calculated as a ratio of apoptotic detached cells divided by the total number of cells in three independent experiments in several fields with the fluorescent microscope. For each experiment 300 cells per treatment were counted. In vitro Kinase Assay—10 μCi of [γ-^32P]-ATP in a kinase buffer (20 mM HEPES, pH 7.4, 5 mM MgCl2, 5 mM MnCl2, 0.1 mM Na3VO4 with 0.1 μg of purified FAK protein were incubated in a kinase buffer with 10 μCi of [γ-^32P]-ATP. The kinase reaction was performed for 5 minutes at room temperature and stopped by addition of 2× Laemmli buffer. Proteins were separated on a Ready SDS-10% PAGE gel, and the phosphorylated enolase was visualized by autoradiography. KinaseProfiler screening—Kinase specificity screening was performed with KinaseProfiler™ Service (Millipore) available on http://www.millipore.com/drugdiscovery/dd3/KinaseProfiler. […]

Test [5] relates to Y397 phosphorylation of FAK. The experiment in a line: Western blotting with Y397 FAK antibody, BT474 cells. The test is classed as cell-based. To be noted: 100 μM. The protocol:
Cell Viability Assay—The Cells were treated with peptides for 24 hours at different peptide concentrations. The 3-(4,5-dimethylthiazol-2-yl)-5-(3-carboxymethoxyphenyl)-2-(4-sulfophenyl)-2H-tetrazolium compound from Promega Viability kit (Madison, Ill.) was added, and the cells were incubated at 37° C. for 1-2 hours. The optical density on 96-plate was analyzed with a microplate reader at 490 nm to determine cell viability. In addition, cells were stained with trypan blue after 24 hours of treatment with Y15 and the percent of cells that stained positive were determined with a hemacytometer. Cell adhesion assay—The poly-L-Lysine or Collagen (5 μg/ml) coated 96-well plates were blocked with the blocking buffer (medium with 0.5% BSA) for 1 hour at 37 C. The cells were pre-treated with drugs for 3 hours and plated for adhesion at 4×10^5 cells. Cells were incubated at 37 C for 1 hour, fixed in 3.7% formaldehyde, washed in 0.1% BSA in PBS and stained with crystal violet (5 mg/ml in 2% ethanol) for 10 minutes. Then 2% SDS was added to the dried plated and OD at 590 nm was measured for detecting cell adhesion. Western Blotting—Cells or homogenized tumor samples were washed twice with cold 1×PBS and lysed on ice for 30 minutes in a buffer containing: 50 mM Tris-HCl (pH 7.5), 150 mM NaCl, 1% Triton-X, 0.5% NaDOC, 0.1% SDS, 5 mM EDTA, 50 mM NaF, 1 mM NaVO3, 10% glycerol and protease inhibitors: 10 μg/ml leupeptin, 10 μg/ml PMSF and 1 μg/ml aprotinin. The lysates were cleared by centrifugation at 10,000 rpm for 30 minutes at 4° C. Protein concentrations were determined using a Bio-Rad Kit. The boiled samples were loaded on Ready SDS-10% PAGE gels (Bio Rad, Inc) and used for Western blot analysis with the protein-specific antibody. Immunoblots were developed with chemiluminescence Renaissance reagent (NEN Life Science Products, Inc). Immunoprecipitation. Immunoprecipitation was performed according to the standard protocol. In brief, the pre-cleared lysates with equal amount of protein were incubated with 1 μg of primary antibody and 30 μl A/G agarose beads overnight at 4° C. The precipitates were washed with lysis buffer three times and re-suspended in 2× Laemmli buffer. The boiled samples were used for Western blotting, as described above. Detachment Assay—Cells were plated with and without inhibitors for 24 hours, and detached and attached cells were counted in a hemocytometer. We calculated the percent of detachment by dividing the number of detached cells by the total number of cells. The percent of detached cells was calculated in three independent experiments. Apoptosis Assay. Detached cells were collected and fixed in 3.7% formaldehyde in 1×PBS solution for the apoptosis assay. Detection of apoptosis was done with Hoechst 33342 staining. The percent of apoptotic cells was calculated as a ratio of apoptotic detached cells divided by the total number of cells in three independent experiments in several fields with the fluorescent microscope. For each experiment 300 cells per treatment were counted. In vitro Kinase Assay—10 μCi of [γ-^32P]-ATP in a kinase buffer (20 mM HEPES, pH 7.4, 5 mM MgCl2, 5 mM MnCl2, 0.1 mM Na3VO4 with 0.1 μg of purified FAK protein were incubated in a kinase buffer with 10 μCi of [γ-^32P]-ATP. The kinase reaction was performed for 5 minutes at room temperature and stopped by addition of 2× Laemmli buffer. Proteins were separated on a Ready SDS-10% PAGE gel, and the phosphorylated enolase was visualized by autoradiography. KinaseProfiler screening—Kinase specificity screening was performed with KinaseProfiler™ Service (Millipore) available on http://www.millipore.com/drugdiscovery/dd3/KinaseProfiler. The screening was performed with 1 μM Y15, 10 μM ATP and kinase substrates on 9 recombinant kinases according to Millipore protocol. Tumor Growth in Nude Mice—Female nude mice, 6 weeks old, were purchased from Harlan Laboratory. […]
(In general: In western blotting, separated proteins are transferred to a membrane and probed.)

Test [6] has as its system BT474 cells. The experiment in a line: Apoptosis assay (Hoechst staining), BT474. The test is classed as cell-based. The protocol: as §2, with “Western Blotting—Cells or homogenized tumor samples were washed twice with cold 1×PBS and lysed on ice for 30 minutes in a buffer containing: 50 mM Tris-HCl (pH 7.5), 150 mM NaCl, 1% Triton-X, 0.5% NaDOC, 0.1% SDS, 5 mM EDTA, 50 mM NaF, 1 mM NaVO3, 10% glycerol and protease inhibitors: 10 μg/ml leupeptin, 10 μg/ml PMSF and 1 μg/ml aprotinin. The lysates were cleared by centrifugation at 10,000 rpm for 30 minutes at 4° C.” left out, “Immunoblots were developed with chemiluminescence Renaissance reagent (NEN Life Science Products, Inc). Immunoprecipitation. Immunoprecipitation was performed according to the standard protocol. In brief, the pre-cleared lysates with equal amount of protein were incubated with 1 μg of primary antibody and 30 μl A/G agarose beads overnight at 4° C. The precipitates were washed with lysis buffer three times and re-suspended in 2× Laemmli buffer. The boiled samples were used for Western blotting, as described above.” left out, “experiments.” for “experiments. Apoptosis Assay.”

For test [7], the system named is Panc-1 cells. The test is described as follows: Apoptosis assay (Hoechst staining), Panc-1. The test is classed as cell-based, human. To be noted: 48 hours. The protocol: Cell Viability Assay—The Cells were treated with peptides for 24 hours at different peptide concentrations. The 3-(4,5-dimethylthiazol-2-yl)-5-(3-carboxymethoxyphenyl)-2-(4-sulfophenyl)-2H-tetrazolium compound from Promega Viability kit (Madison, Ill.) was added, and the cells were incubated at 37° C. for 1-2 hours. The optical density on 96-plate was analyzed with a microplate reader at 490 nm to determine cell viability. In addition, cells were stained with trypan blue after 24 hours of treatment with Y15 and the percent of cells that stained positive were determined with a hemacytometer. Cell adhesion assay—The poly-L-Lysine or Collagen (5 μg/ml) coated 96-well plates were blocked with the blocking buffer (medium with 0.5% BSA) for 1 hour at 37 C. The cells were pre-treated with drugs for 3 hours and plated for adhesion at 4×10^5 cells. Cells were incubated at 37 C for 1 hour, fixed in 3.7% formaldehyde, washed in 0.1% BSA in PBS and stained with crystal violet (5 mg/ml in 2% ethanol) for 10 minutes. Then 2% SDS was added to the dried plated and OD at 590 nm was measured for detecting cell adhesion. […] Protein concentrations were determined using a Bio-Rad Kit. The boiled samples were loaded on Ready SDS-10% PAGE gels (Bio Rad, Inc) and used for Western blot analysis with the protein-specific antibody. […] Detachment Assay—Cells were plated with and without inhibitors for 24 hours, and detached and attached cells were counted in a hemocytometer. We calculated the percent of detachment by dividing the number of detached cells by the total number of cells. The percent of detached cells was calculated in three independent experiments. […] The percent of apoptotic cells was calculated as a ratio of apoptotic detached cells divided by the total number of cells in three independent experiments in several fields with the fluorescent microscope. For each experiment 300 cells per treatment were counted. […]

The subject of test [8] is glioma and ovarian tumor. To be noted: cited from earlier work.
Test [9] concerns the target IGFR kinase (Homo sapiens, UniProt P08069). To be noted: cited from earlier work.
For test [10], the system named is Panc-1 tumor cells. The test is described as follows: Panc-1 subcutaneous tumor growth in nude mice. The conditions noted are these: 30 mg/kg each, daily intraperitoneal. It is filed as in vivo. The protocol: as §1
For test [11], the system named is caspase-3. The test is described as follows: Caspase-3 immunohistochemistry of Panc-1 tumors. The test is classed as in vivo, mice. The conditions noted are these: 30 mg/kg, no significant increase. The protocol: as §1

Sequence of IGFR kinase (P08069 31-1367): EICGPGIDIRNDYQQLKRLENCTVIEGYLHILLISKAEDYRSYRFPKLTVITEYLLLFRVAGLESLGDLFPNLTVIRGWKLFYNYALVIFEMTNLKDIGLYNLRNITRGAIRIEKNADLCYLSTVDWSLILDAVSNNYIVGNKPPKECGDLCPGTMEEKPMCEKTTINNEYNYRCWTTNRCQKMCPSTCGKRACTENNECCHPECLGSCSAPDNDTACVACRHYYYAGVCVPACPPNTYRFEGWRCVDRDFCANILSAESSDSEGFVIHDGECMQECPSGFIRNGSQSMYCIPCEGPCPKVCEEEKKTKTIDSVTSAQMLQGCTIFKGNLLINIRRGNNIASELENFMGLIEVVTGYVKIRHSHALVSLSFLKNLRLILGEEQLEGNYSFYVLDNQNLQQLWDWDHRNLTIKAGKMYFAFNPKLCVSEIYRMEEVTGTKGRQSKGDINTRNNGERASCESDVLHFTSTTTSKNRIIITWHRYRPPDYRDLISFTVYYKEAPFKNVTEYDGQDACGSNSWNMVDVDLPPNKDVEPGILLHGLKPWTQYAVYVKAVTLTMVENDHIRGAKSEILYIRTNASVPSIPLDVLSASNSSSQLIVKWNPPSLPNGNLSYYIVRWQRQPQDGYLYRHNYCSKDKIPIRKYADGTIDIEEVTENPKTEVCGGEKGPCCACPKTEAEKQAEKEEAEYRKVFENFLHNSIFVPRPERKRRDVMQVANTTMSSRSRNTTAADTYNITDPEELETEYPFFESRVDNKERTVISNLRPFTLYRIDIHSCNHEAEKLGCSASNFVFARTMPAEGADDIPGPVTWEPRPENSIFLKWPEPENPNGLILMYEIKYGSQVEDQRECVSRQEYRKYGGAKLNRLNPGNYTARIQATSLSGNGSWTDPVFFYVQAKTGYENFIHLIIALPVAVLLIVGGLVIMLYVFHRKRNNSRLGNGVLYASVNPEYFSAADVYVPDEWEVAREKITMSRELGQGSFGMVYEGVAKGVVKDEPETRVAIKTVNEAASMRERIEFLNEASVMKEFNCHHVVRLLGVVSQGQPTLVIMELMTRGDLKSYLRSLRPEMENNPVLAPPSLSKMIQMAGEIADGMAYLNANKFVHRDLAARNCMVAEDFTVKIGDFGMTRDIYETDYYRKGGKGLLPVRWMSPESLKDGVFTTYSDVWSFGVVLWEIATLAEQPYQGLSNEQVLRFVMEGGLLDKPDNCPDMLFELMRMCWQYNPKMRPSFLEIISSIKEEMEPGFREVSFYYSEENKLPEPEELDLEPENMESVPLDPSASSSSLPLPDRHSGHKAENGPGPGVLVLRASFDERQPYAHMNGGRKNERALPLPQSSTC

`CS(=O)(=O)c1cccc(CNc2nc(Nc3ccc4c(c3)CCC(=O)N4)ncc2C(F)(F)F)c1` [PF-573,228]: the Y397-FAK phosphorylation result in [1] is listed as “effectively blocked Y397-FAK phosphorylation”. Moreover, the “cell growth and survival in vitro” value in [2] was “did not inhibit cell growth and survival in vitro”.
With `CNC(=O)c1ccccc1Nc1nc(Nc2ccc(N3CCOCC3)cc2OC)ncc1Cl` [TAE226, reference compound], in test [3], the FAK autophosphorylation activity result is “directly blocked autophosphorylation activity of FAK”. The Y397-FAK phosphorylation result in test [1] is recorded as “effectively blocked Y397-FAK phosphorylation”. For the same compound, the detachment in test [4] (10 μM) is 30%; in test [4] (50 μM) it was more than 80%. The “total FAK level” value in test [5] is “down-regulated total FAK”. Besides, in [5] (24 hours), the “Y397 phosphorylation of FAK” value was “completely blocked Y397 phosphorylation”. For the same compound, the figures for the apoptosis in [6] (10 μM) and in test [6] (20 μM) were 35% and 69%, respectively. Moreover, the “level of apoptosis compared to similar doses of Y15” value in test [7] was “slightly higher level of apoptosis”. In [8] (30 mg/kg, alone), the “tumor growth in ovarian tumor model” value is “not so effective”. Besides, the “tumor growth in vivo” value in [8] is “inhibited glioma and ovarian tumor growth in vivo”. In addition, the IGFR kinase inhibition result in test [9] is reported as “inhibited IGFR kinase”.
As to `Nc1ccn([C@@H]2O[C@H](CO)[C@@H](O)C2(F)F)c(=O)n1` [gemcitabine, reference compound], the tumor growth result in test [10] was “inhibited tumor growth”. For the same compound, in [11], the “apoptotic cells in tumors (caspase-3 staining)” value is given as 2%.
